Reference: PubChem BioAssay (NCI)
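How tested: cells in 96-well plates exposed to compound for 48 hours at five concentrations. At the GI50, growth is halved. TGI is the concentration that stops growth completely.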

What was measured:
Experiment in all cases: growth of human tumour cells (NCI), 48 h
[1] = tested on: OVCAR-3 ovarian
[2] = tested on: NCI/ADR-RES ovarian
[3] = tested on: SNB-75 CNS
[4] = tested on: KM12 colon
[5] = tested on: MALME-3M melanoma
[6] = tested on: SK-MEL-28 melanoma
[7] = tested on: HOP-62 NSCLC
[8] = tested on: TK-10 renal
[9] = tested on: OVCAR-8 ovarian
[10] = tested on: SW-620 colon

Structure (SMILES)	TGI [1] [µM]	TGI [2] [µM]	TGI [3] [µM]	TGI [4] [µM]	TGI [5] [µM]	TGI [6] [µM]	TGI [7] [µM]	TGI [8] [µM]	TGI [9] [µM]	TGI [10] [µM]	GI50 [1] [µM]	GI50 [3] [µM]	GI50 [7] [µM]	GI50 [8] [µM]	GI50 [4] [µM]	GI50 [5] [µM]	GI50 [6] [µM]	GI50 [10] [µM]	GI50 [9] [µM]	GI50 [2] [µM]
COC(=O)c1c(OC(C)=O)ccc2c1c1c(OC(C)=O)c3ccccc3c(OC(C)=O)c1n2Cc1cc(OC)cc(OC)c1	> 100	> 100	54.3	8.13	70.6	> 100	> 100	> 100	> 100	–	–	–	–	–	–	–	–	–	–	–
COCn1c(C)c(C)c2c(=O)oc(=O)[nH]c21	–	> 100	> 100	> 100	> 100	> 100	> 100	> 100	> 100	> 100	–	–	–	–	–	–	–	–	–	–
Cc1oc2nc1C(=O)NCc1nc(cs1)C(=O)N[C@H](C(C)C)c1nc(cs1)C(=O)N[C@H]2C	> 100	> 100	> 100	> 100	> 100	> 100	> 100	–	> 100	> 100	–	–	–	–	–	–	–	–	–	–
Nc1ccc2c(c1)C1Oc3ccccc3CC1CO2 (stereo unspecified)	> 100	> 100	–	> 100	> 100	–	> 100	> 100	> 100	> 100	–	–	–	–	–	–	–	–	–	–
Cc1cc(O)c(C(C)C)cc1NC(=O)Nc1cccc2ccccc12	40.2	76.2	–	38.8	40.3	55.8	30.9	32.5	> 100	> 100	–	–	–	–	–	–	–	–	–	–
Cc1c(CNc2ccc(Cl)c(C(=O)NC(CC(=O)O)C(=O)O)c2)ccc2nc(N)nc(N)c12 (stereo unspecified)	> 1000	> 1000	> 1000	> 1000	692	–	–	> 1000	> 1000	> 1000	16.8	122	0.557	363	–	–	–	–	–	–
CCCCC/C=C1/CC(CO)(COC(=O)CC(C(C)C)C(C)C)OC1=O (stereo unspecified)	32.7	38.9	22.6	30.5	18.2	26.7	20.7	32.5	31	50.8	–	–	–	–	–	–	–	–	–	–
C=CCNC1=C2C[C@@H](C)C[C@@H](OC)C(OC(=O)CCCN(C)C)[C@H](C)/C=C(\C)[C@@H](OC(N)=O)[C@H](OC)/C=C\C=C(/C)C(=O)NC(=CC1=O)C2=O (stereo partly specified)	11.7	52.1	22.9	14.6	14.4	27.4	21.5	25.1	16	16.9	–	–	–	–	–	–	–	–	–	–
COc1ccc2oc(S(=O)(=O)N3CC(CCl)c4ccc([N+](=O)[O-])cc43)cc2c1 (stereo unspecified)	0.457	4.03	> 36.8	0.418	32.8	> 61.6	–	> 55.2	4.36	> 100	–	–	–	–	–	–	–	–	–	–
C=Nc1ccc([N+](=O)[O-])cc1	> 100	–	> 100	> 100	> 100	> 100	–	> 100	> 100	> 100	–	–	–	–	–	–	–	–	–	–
CCOC(=O)C1=CN=C2C(=O)N(c3ccccc3)N(C)C2(C)C1=N (stereo unspecified)	> 100	> 100	> 100	> 100	> 100	> 100	–	> 100	> 100	> 100	–	–	–	–	–	–	–	–	–	–
C(=N\Nc1ncc(-c2cc3cc4c(cc3o2)OCO4)s1)/c1c[nH]c2ccccc12	1.89	–	2.89	2.04	4.02	12.2	7.95	5.59	> 100	3	0.536	1.4	1.6	2.4	0.449	1.4	3.17	1.2	1.65	–
Nn1c(Cc2ccc(Cl)cc2)n[nH]c1=O	> 100	> 100	> 100	> 100	> 100	> 100	> 100	> 100	> 100	> 100	–	–	–	–	–	–	–	–	–	–
CC(=O)Nc1ccc2c(C(=O)O)c(C)c(=O)[nH]c2n1	–	> 100	–	> 100	> 100	–	–	> 100	> 100	> 100	–	–	–	–	–	–	–	–	–	–
O=S(=O)(c1ccccc1)n1c(C(O)c2ccncc2)cc2ccccc21 (stereo unspecified)	> 100	> 100	> 100	> 100	–	> 100	> 100	79.7	> 100	> 100	–	–	–	–	–	–	–	–	–	–
COC(=O)C1=C(C)N2CCCOC2(C)C(C(=O)OC)C1c1cccc(Cl)c1 (stereo unspecified)	70.8	–	42.3	43.9	–	> 100	48.7	> 100	87.9	> 100	–	–	–	–	–	–	–	–	–	–
CCNc1nc(N)c(C(=O)c2ccc(Cl)cc2)s1	65.4	> 100	–	> 100	> 100	> 100	> 100	54.4	–	> 100	–	–	–	–	–	–	–	–	–	–
COc1ccc2c(c1)OCC1(O)Cc3ccccc3OC21 (stereo unspecified)	> 100	> 100	> 100	> 100	> 100	–	> 100	> 100	> 100	> 100	–	–	–	–	–	–	–	–	–	–
Cc1cc2c(cc1-c1cc3c(cc1C)C(C(C)C)=C(O)C(=O)/C3=C\Nc1nc(-c3ccccc3)cs1)/C(=C/Nc1nc(-c3ccccc3)cs1)C(=O)C(O)=C2C(C)C	36	63.9	> 100	> 100	> 100	30.4	31.7	–	77	29	–	–	–	–	–	–	–	–	–	–
Cc1ccc(S(=O)(=O)NC(=O)NC(Cc2c[nH]c3ccccc23)C(=O)O)cc1 (stereo unspecified)	–	> 100	> 100	> 100	> 100	> 100	> 100	> 100	> 100	> 100	–	–	–	–	–	–	–	–	–	–
CC(C)CC(=O)NC(Nc1ccc(S(=O)(=O)Nc2ncccn2)cc1)(C(F)(F)F)C(F)(F)F	> 100	> 100	> 100	> 100	> 100	> 100	> 100	–	> 100	> 100	–	–	–	–	–	–	–	–	–	–
Oc1ccc2c(c1)-c1c(c3cc(O)ccc3n1CCN1CCOCC1)CC2	61.8	73.9	58.5	> 100	–	61.9	72.7	> 100	86.8	71.2	–	–	–	–	–	–	–	–	–	–
COc1cc2c(cc1OC)C1CN3C(=O)CCC3C(O)C1c1cc(OC)c(OC)cc1-2 (stereo unspecified)	–	> 100	> 100	> 100	> 100	> 100	> 100	> 100	> 100	> 100	–	–	–	–	–	–	–	–	–	–

Structure (SMILES)	TGI [1] [µM]	TGI [2] [µM]	TGI [3] [µM]	TGI [4] [µM]	TGI [5] [µM]	TGI [6] [µM]	TGI [7] [µM]	TGI [8] [µM]	TGI [9] [µM]	TGI [10] [µM]	GI50 [1] [µM]	GI50 [3] [µM]	GI50 [7] [µM]	GI50 [8] [µM]	GI50 [4] [µM]	GI50 [5] [µM]	GI50 [6] [µM]	GI50 [10] [µM]	GI50 [9] [µM]	GI50 [2] [µM]
N#CCCNCCN(CCN(C(=O)Nc1ccccc1)c1ccccc1)C(=O)Nc1ccccc1	–	> 100	> 100	–	54.8	67.3	> 100	> 100	> 100	> 100	–	–	–	–	–	–	–	–	–	–
CSC1=Nc2ccccc2-c2nc(-c3ccccc3)cc(-c3ccccc3)c2C1	–	> 100	16.8	> 100	–	> 100	> 100	36.8	> 100	> 100	–	–	–	–	–	–	–	–	–	–
CCSc1ncnc2c(C3OC(CO)C(O)C3O)nsc12 (stereo unspecified)	> 100	> 100	> 100	–	> 100	> 100	> 100	–	> 100	> 100	–	–	–	–	–	–	–	–	–	–
CC1(C)O[C@H](C(=O)O)[C@@H](C(=O)O)O1	–	> 100	> 100	> 100	> 100	> 100	> 100	> 100	> 100	> 100	–	–	–	–	–	–	–	–	–	–
CN(C)N=Nc1ccc([N+](=O)[O-])cc1C(N)=O	> 100	> 100	> 100	> 100	> 100	> 100	> 100	–	> 100	> 100	–	–	–	–	–	–	–	–	–	–
CC(=O)Nc1ccc(S(=O)(=O)Nc2nnc(S(N)(=O)=O)s2)cc1	–	> 100	> 100	> 100	> 100	–	–	> 100	–	> 100	–	–	–	–	–	–	–	–	–	–
CC(C)OC(=O)c1ccc(NCC2=CC(=O)C=CC2=O)cc1Cl	> 45.9	> 100	> 70.3	33.2	–	56.5	> 100	30	> 51.4	> 53.5	–	–	–	–	–	–	–	–	–	–
CC1CN=C(Nc2cccc(C(F)(F)F)c2)S1 (stereo unspecified)	> 100	–	> 100	> 100	> 100	> 100	> 100	> 100	–	–	–	–	–	–	–	–	–	–	–	–
Cc1nc2c(cc1C(=O)NN)c(=O)n(C)c(=O)n2C	> 100	> 100	> 100	> 100	–	> 100	> 100	> 100	> 100	> 100	–	–	–	–	–	–	–	–	–	–
CN(C(=O)C12C3C4(C(=O)O)C1(C(=O)N(C)C(C)(C)C)C1C2(C(=O)O)C3(C(=O)N(C)C(C)(C)C)C14C(=O)N(C)C(C)(C)C)C(C)(C)C (stereo unspecified)	> 100	> 100	–	> 100	–	> 100	> 100	> 100	> 100	> 100	–	–	–	–	–	–	–	–	–	–
Cc1cn(C2CC(O)C(CO)C2C)c(=O)[nH]c1=O (stereo unspecified)	> 100	–	> 100	> 100	> 100	> 100	> 100	–	> 100	> 100	–	–	–	–	–	–	–	–	–	–
CO/C(=N\N=C\c1ccc(Cl)cc1)c1ccncc1	> 100	–	> 100	> 100	> 100	> 100	> 100	> 100	> 100	> 100	–	–	–	–	–	–	–	–	–	–
CC1=NN(c2cccc(Cl)c2)C2(C1)C(Cl)C(=O)N2c1nc2ccccc2s1 (stereo unspecified)	66.5	69.7	67.1	> 100	> 100	–	64.8	> 100	> 100	> 100	–	–	–	–	–	–	–	–	–	–
CC/C(Cl)=N\OC(=O)Nc1ccc(OC)cc1	10.7	15	19.3	31.6	10.7	15.1	30.3	18.2	37.4	–	–	–	–	–	–	–	–	–	–	–
CCCSc1cc(Cl)c(C)cc1S(=O)(=O)n1ccnc1OCCCN(C)C	> 100	> 100	–	> 100	> 100	> 100	> 100	> 100	> 100	> 100	–	–	–	–	–	–	–	–	–	–
Cc1ccccc1N=C(N)NC#N	–	> 100	> 100	–	> 100	> 100	> 100	> 100	> 100	> 100	–	–	–	–	–	–	–	–	–	–
Cc1cccc2c1C(=O)C1(Cc3ccccc3C1=O)C2 (stereo unspecified)	> 100	> 100	> 100	–	> 100	> 100	> 100	> 100	> 100	> 100	–	–	–	–	–	–	–	–	–	–
O=[N+]([O-])C(/C(Cl)=C(/Cl)N1CCOCC1)=C1\NCCO1	> 100	> 100	> 100	> 100	> 100	> 100	> 100	–	> 100	> 100	–	–	–	–	–	–	–	–	–	–
O=C1C=Cc2c(Cl)sc(Cl)c21	–	5.32	13.1	–	–	3.97	4.2	4.39	–	–	–	–	–	–	–	–	–	–	–	–
CCN(CC)CCCCCCCCNc1c2ccc(Cl)cc2nc2ccc(OC)cc12	4.33	10.3	3.15	3.92	–	3.63	3.13	4.24	3.64	2.67	1.91	1.49	1.4	1.83	1.42	–	1.95	1.02	1.39	2.46
C[C@]12CC[C@H]3[C@@H](CCC4=CC(=O)C=C[C@@]43O)[C@@H]1CCC2=O	> 100	> 100	> 100	> 100	–	> 100	> 100	–	> 100	> 100	–	–	–	–	–	–	–	–	–	–
CC(C)(C)C#C[P+](c1ccccc1)(c1ccccc1)c1ccccc1	1.32	–	0.553	0.687	1.68	1.46	1.79	3.48	1.67	0.843	–	–	–	–	–	–	–	–	–	–
